Laboratory results as given in ChEMBL document CHEMBL5244209, “Antiplasmodial and antimalarial activities of quinolone derivatives: An overview” (Eur J Med Chem, 2018).

Tests used:
[1] = system: Plasmodium falciparum; assay: Antiplasmodial activity against Plasmodium falciparum Dd2 infected in human Erythrocyte measured after 72 hrs by SYBR green fluorescence dye based microplate reader analysis; type: functional, organism-based
[2] = system: Plasmodium falciparum; assay: Antiplasmodial activity against Plasmodium falciparum D6 infected in human Erythrocyte measured after 72 hrs by SYBR green fluorescence dye based microplate reader analysis; type: functional, organism-based
[3] = system: Plasmodium falciparum; assay: Antiplasmodial activity against Plasmodium falciparum Tm90-C2B infected in human Erythrocyte measured after 72 hrs by SYBR green fluorescence dye based microplate reader analysis; type: functional, organism-based
[4] = system: Plasmodium falciparum; assay: Antimalarial activity against Plasmodium falciparum Dd2; type: functional, organism-based
[5] = system: Plasmodium berghei; assay: Antiplasmodial activity against liver stage Plasmodium berghei ANKA infected in human HepG2 cells measured after 44 hrs; type: functional, organism-based; conditions: HepG2, 44 h
[6] = system: Plasmodium falciparum; assay: Antimalarial activity against Antimalarial activity against chloroquine-sensitive Plasmodium falciparum FCR-3; type: functional, organism-based
[7] = system: Plasmodium falciparum; assay: Antimalarial activity against chloroquine-sensitive Plasmodium falciparum 3D7; type: functional, organism-based
[8] = system: FM3A; assay: Cytotoxicity against mouse FM3A cells; type: functional, cell-based
[9] = system: Plasmodium falciparum; assay: Antiplasmodial activity against chloroquine-sensitive Plasmodium falciparum 3D7 infected in human erythrocyte incubated for 72 hrs by SYBR green I staining based fluorescence assay; type: functional, organism-based; conditions: 3D7, Erythrocyte

IC50 [1] [nM]	IC50 [2] [nM]	IC50 [3] [nM]	Compound	other results
1	0.1	81	CCCCCCCc1c(C)[nH]c2cc(F)cc(F)c2c1=O	–
–	–	–	COc1ccc2c(=O)c(-c3ccc(Oc4ccc(OC(F)(F)F)cc4)cc3)c(C)[nH]c2c1	IC50 [4]: 3.85 nM
–	–	–	COc1cc2[nH]c(C)c(-c3ccccc3C)c(=O)c2cc1Cl	IC50 [5]: 2.82 nM
–	–	–	COc1cc2[nH]c(C)c(-c3ccc(C(F)(F)F)cc3)c(=O)c2cc1Cl	IC50 [5]: 3.07 nM
–	–	–	Cn1cc(C(=O)N/N=C/c2ccncc2)c(=O)c2cc(F)ccc21	IC50 [6]: > 100000 nM
–	–	–	O=C(O)/C(=C\n1cc(C(=O)O)c(=O)c2cc(F)ccc21)c1cccnc1	IC50 [7]: 24000 nM; IC50 [8]: > 100000 nM
805	759	824	CCCCCCCc1c(C)[nH]c2cc(O)ccc2c1=O	–
–	–	–	CCOC(=O)/C(=C\n1cc(C(=O)O)c(=O)c2cc(F)ccc21)c1ccccn1	IC50 [7]: 21000 nM; IC50 [8]: > 100000 nM
–	–	–	CCOC(=O)c1cn(/C=C(\C(=O)O)c2cccnc2)c2ccc(F)cc2c1=O	IC50 [7]: 29000 nM; IC50 [8]: > 100000 nM
45	18	–	CCCCCCCc1c(C)[nH]c2cc(C#N)ccc2c1=O	–
1	1	5	COc1ccc2c(=O)c(CCCCCCCCCCC(F)(F)F)c(C)[nH]c2c1	–
29	29	92	CCCCc1c(C)[nH]c2cc(OC)ccc2c1=O	–
–	–	–	Cn1cc(C(=O)N/N=C/c2ccccn2)c(=O)c2cc(C(F)(F)F)ccc21	IC50 [6]: 6200 nM
–	–	–	Cn1cc(C(=O)N/N=C/c2ccccn2)c(=O)c2cc(F)ccc21	IC50 [6]: 3300 nM
–	–	–	CCOC(=O)/C(=C\n1cc(C(=O)OCC)c(=O)c2cc(F)ccc21)c1ccccn1	IC50 [7]: 21000 nM; IC50 [8]: > 100000 nM
3	4	11	CCCCCCCc1c(C)nc2cc(OC)ccc2c1O	–
12	8	52	CCCCCc1c(C)[nH]c2cc(OC)ccc2c1=O	–
2	6	64	CCCCCCCc1c(C)[nH]c2cc(Cl)ccc2c1=O	–
–	–	–	C=CC1CC2CCC1CC2[C@H](OC(=O)[C@@H](NC(=O)C1=CN(C2CC2)C2C=C(N3CCN(CC)CC3)C(F)=CC2C1=O)C(C)CC)c1cccc2ccc(OC)cc12 (some centres undefined)	IC50 [9]: 207 nM
–	–	–	Cn1cc(C(=O)N/N=C/c2cccnc2)c(=O)c2cc(C(F)(F)F)ccc21	IC50 [6]: > 100000 nM
